{"source": "paper PMC2717892", "about": "(2009)", "system": "T5 (DNA, single strand) TTTTT", "assay": "direct excitation Eu", "conditions": "50 mM NaNO3; 20 mM HEPES pH 7.0; 25 µM complex; 5–50 µM nucleic acid", "data": [{"compound": "NC(=O)CN1CCN(CC(N)=O)CCN(Cc2ccc(CN3CCN(CC(N)=O)CCN(CC(N)=O)CCN(CC(N)=O)CC3)cc2)CCN(CC(N)=O)CC1.O.O.O.O.[Eu+3].[Eu+3]", "values": [{"measurement": "binding", "value": "weak"}]}]}
